# Test results reported in the supplement of paper PMC10307832.
# Experiments:
# Experiment in all cases: relative viability (nuclei count vs DMSO), 5 days (fraction); higher = more cells survive
# [1] = compound: CC(C)C[C@@H](C(=O)N[C@H](C(=O)OC1CCCC1)c1ccccc1)[C@H](O)C(=O)NO [Tosedostat] + C[C@]1(O)C[C@@H](c2nc(-c3ccc4ccc(-c5ccccc5)nc4c3)c3c(N)nccn32)C1 [Linsitinib] (partner 1 µM)
# Method in brief: (§1)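 Each reported value is a median over duplicate plates. It expresses relative viability: treated-well nuclei count divided by vehicle-well nuclei count. Lung cancer cell lines in 1536-well plates were dosed by pin tool a day after seeding, alone with one drug or with a fixed anchor-drug dose plus five library-drug doses (not always all listed) in √10 steps, and nuclei were counted after 5 days.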
# [2] = compound: CC1=NN=C(O1)C2=NN=C(C=C2)N3CCC(CC3)OC4=C(C=CC(=C4)F)Cl + Cc1nc(Nc2ncc(C(=O)Nc3c(C)cccc3Cl)s2)cc(N2CCN(CCO)CC2)n1 [Dasatinib] (partner 0.075 µM)
# Method in brief: as §1
# [3] = compound: CC(C)C[C@@H](C(=O)N[C@H](C(=O)OC1CCCC1)c1ccccc1)[C@H](O)C(=O)NO [Tosedostat] + CC(C)C[C@H](NC(=O)[C@H](Cc1ccccc1)NC(=O)c1cnccn1)B(O)O [Bortezomib] (partner 0.002 µM)
# Method in brief: as §1
# [4] = compound: CC1=NN=C(O1)C2=NN=C(C=C2)N3CCC(CC3)OC4=C(C=CC(=C4)F)Cl + CC(=O)c1c(C)c2cnc(Nc3ccc(N4CCNCC4)cn3)nc2n(C2CCCC2)c1=O [Palbociclib] (partner 0.5 µM)
# Method in brief: as §1
Cell Line,relative viability ([1]; first compound 0.02 µM),relative viability ([1]; first compound 0.06325 µM),relative viability ([1]; first compound 0.2 µM),relative viability ([1]; first compound 0.6325 µM),relative viability ([1]; first compound 2 µM),relative viability ([2]; first compound 0.253 µM),relative viability ([2]; first compound 0.8 µM),relative viability ([2]; first compound 2.53 µM),relative viability ([2]; first compound 8 µM),relative viability ([3]; first compound 0.02 µM),relative viability ([3]; first compound 0.06325 µM),relative viability ([3]; first compound 0.2 µM),relative viability ([3]; first compound 0.6325 µM),relative viability ([3]; first compound 2 µM),relative viability ([4]; first compound 0.253 µM),relative viability ([4]; first compound 0.8 µM),relative viability ([4]; first compound 2.53 µM),relative viability ([4]; first compound 8 µM)
HCC-827,0.966,0.934,0.976,0.857,0.909,0.374,0.235,0.357,0.256,1.1,1.04,1.07,1,1.01,0.317,0.283,0.355,0.3
HOP-62,1.07,0.977,0.849,0.693,0.712,0.571,0.633,0.606,0.6,0.719,0.931,0.805,0.526,0.498,0.351,0.356,0.265,0.212
IA-LM,0.688,0.596,0.463,0.445,0.474,–,–,–,–,0.854,0.731,0.814,0.848,0.735,–,–,–,–
LC-2-ad,0.865,0.743,0.866,0.823,0.805,0.4,0.389,0.48,0.505,1.15,0.971,1.01,0.906,0.791,0.215,0.216,0.239,0.202
LCLC-97TM1,0.181,–,–,0.205,0.167,0.395,0.324,0.345,0.347,0.529,0.696,0.537,0.336,0.193,0.184,–,0.164,0.19
LCLC-103H,1.29,1.08,1.06,1.18,1.36,0.401,0.392,0.449,0.427,1.1,0.947,1.05,1.25,1.06,0.343,0.32,0.321,0.343
LK-2,0.883,0.465,0.562,0.743,0.913,0.393,0.458,0.504,0.428,–,–,–,–,–,0.739,0.818,0.772,0.614
LOU-NH91,0.961,0.932,0.991,0.973,0.938,0.473,0.517,0.512,0.509,0.5,0.545,0.484,0.564,0.44,–,0.535,0.478,0.632
LU99A,0.508,0.555,0.528,0.561,0.504,0.517,0.674,0.728,0.509,1.11,1.04,1.08,0.94,0.761,0.402,0.484,0.443,0.418
NCI-H358,0.944,0.788,0.544,0.548,0.507,0.199,0.196,0.19,0.188,–,–,–,–,–,0.137,0.12,0.119,0.133
